Reference: patent US20070141571A1, “Diagnostics and therapeutics for diseases associated with endothelial differentiation, sphingolipid g-protein-coupled receptor 6(edg6)” (BAYER HEALTHCARE AG, priority 2003, published 2007)

Legend:
Edg-6 [1] = biological target: T1, Edg-6 (Homo sapiens, UniProt O95977); conditions: cited from earlier work; for increase in cytosolic Ca(2+) concentration: Edg-6-transfected CHO cells compared with vector-transfected cells
T1 construct: host or cells: Edg-6-transfected Chinese hamster ovary (CHO) cells and K562 cells
T1 sequence (O95977 1-384): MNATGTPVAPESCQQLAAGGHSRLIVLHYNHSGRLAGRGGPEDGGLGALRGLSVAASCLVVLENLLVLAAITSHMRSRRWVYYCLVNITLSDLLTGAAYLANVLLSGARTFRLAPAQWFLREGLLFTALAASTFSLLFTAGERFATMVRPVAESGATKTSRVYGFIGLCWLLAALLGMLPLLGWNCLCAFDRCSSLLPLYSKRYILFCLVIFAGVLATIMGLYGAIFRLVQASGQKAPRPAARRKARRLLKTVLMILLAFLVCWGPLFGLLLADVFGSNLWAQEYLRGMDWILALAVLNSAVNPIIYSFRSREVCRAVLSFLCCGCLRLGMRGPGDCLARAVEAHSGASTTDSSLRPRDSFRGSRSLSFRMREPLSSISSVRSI

Edg-6 [2] = biological target: T1, Edg-6; conditions: Edg-6-transfected CHO and K562 cells; cited from earlier work
[3] = system: HEL/EDG6 platelet-like particles; assay: PF4 release from platelet-like particles; format: cell-based, human; conditions: 100 nM PMA or 50 μM ADP 10 min; 0.5 units/ml thrombin 2 min; data not shown
Experimental: During propagation of HEL/EDG6, we observed an accumulation of small particles in the culture supernatant. They were harvested by two-step sedimentation centrifugation and analyzed. […] In order to investigate if the platelet-like particles were functional, they were stimulated and the release of Platelet Factor IV (PF4) was measured as a platelet functional marker. […] The low sensitivity to ADP raised a question about the full functionality of the particles as platelets. In order to examine whether it is due to lack of the appropriate ADP receptors, we performed RT-PCR analysis. There are two ADP receptors identified in platelets, ubiquitous P2Y1, and platelet-specific P2Y12. We detected P2Y1 expression in HEL cells stably transformed with an empty vector (HEL/CV), HEL/EDG6, and platelets. In contrast, P2Y12 was detected in HEL/EDG6 and platelets, but not in HEL/CV. […] The low responsiveness of the particles to ADP thus is likely due to desensitization of the ADP receptors, since the particles were prepared from a long-term culture and had been inevitably exposed to cellular components during culture. Alternatively the density of the particles may not have been high enough to exert a positive feedback amplified by mediators released from nearby particles.
Isolation of platelets and platelet-like particles: Blood from healthy donors was collected into centrifuge tubes containing 20 mM sodium dyhydrogenphosphate dehydrate, 17 mM citric acid, 90 mM sodium citrate, and 13 mM Dextrose. HEL/S1P4 cells were cultured until cells released cytoplasmic particles (typically 10-18 days). Preparations were centrifuged at 200 g for 15 minutes. Supernatants obtained were centrifuged at 1600 g for 15 minutes. Sediments containing platelets or platelet-like particles were used in the experiments.
PF4 release: Platelet-like particles were suspended in Dulbecco's modified Eagle medium (DMEM) and stimulated with 100 nM PMA or 50 μM ADP for 10 minutes. […] Platelet factor 4 in supernatants was measured with ZymutestPF4 enzyme-linked immunosorbent assay (Hyphen BioMed, France).

HEL/EDG6 cells [4] = assay: Rho, Rac and cdc42 assays, HEL/EDG6; format: cell-based, human; conditions: HEL/EDG6, serum starvation, 1 μM S1P 1 minute
Experimental: (§1) To obtain an insight into potential mechanisms, we treated HEL/EDG6 and HEL/CV with a variety of cytoskeletal modulators in the presence of PMA. […] To test if suppression of the Rho-kinase pathway is responsible for the formation of cytosolic extensions, the cells were treated with C3 exoenzyme, a Rho inhibitor, before PMA treatment. […] Alternatively, activation of other Rho family GTPases might cause the process formation, since reciprocal regulation between Rho and Rac/Cdc42 is observed in some cell types [E. E. Sandera, et al., (1999)]. Activation of Rho, Rac, and Cdc42, were investigated in HEL/CV and HEL/EDG6 after serum starvation and subsequent stimulation with S1P.
(§2) Rho, Rac and cdc42 assays: Cells (5×10^6 for Cdc42 and Rac, 1×10^7 for Rho) were harvested and lysed with 50 mM Tris (pH 7.5), 100 mM NaCl, 1% Triton X-100, 5 mM MgCl2 containing protease inhibitors (Complete™, EDTA-free, Roche Diagnostics, Germany). Cell lysates were clarified by centrifugation at 15000 g at 4° C. for 5 minutes, and incubated with PAK-1 PBD agarose, Rhotekin RBD agarose (Upstate, N.Y.) and GST-WASP GBD beads idndly provided by Tatsuo Kinashi, Kyoto University) at 4° C. for 45 minutes with constant rotation. […] The amounts of Rho, Rac, cdc42, and WASP in 20 μg of whole cell lysates were also analyzed by Western Blot. After incubating with HRP-conjugated secondary antibodies, the blots were developed with ECL-Plus (Amersham Biosciences, UK). For examination of Rho, Rac and cdc42 responses to S1P treatment, cells were maintained in RPMI1640 containing 0.1% fatty-acid free BSA (Sigma) overnight. Cells were harvested and suspended in PBS, and stimulated with 1 μM S1P at 37° C. for 1 minute before cell lysis. Rho, Rac, and cdc42 in 20 μg of the whole cell lysates were also analyzed by Western blot for examination of protein expression. WASP in 20 μg of the whole cell lysates was detected using an anti-WASP antibody (Sigma, Mo.).

HEL/CV cells [5] = assay: Rho, Rac and cdc42 assays, HEL/CV; format: cell-based, human; conditions: serum starvation, 1 μM S1P 1 minute
Experimental: as §1, §2

[6] = system: CD34+ hematopoietic progenitor cells; assay: megakaryocyte colony formation assay; format: cell-based, human
Experimental: Mean colony number per well of CD41 positive (CFU-MK) and negative (non-MK) colonies are plotted with SD (n=4 to 8, left panels). […] The experiment was repeated twice with each progenitor and obtained similar results. # • (B) Megakaryocyte differentiation was induced for 12 days from the CD34^+ progenitor cells and the cells were separated for CD41 expression. RNAs from non-differentiated cells (Day 0), differentiated cells (Day 12), and peripheral platelets were analyzed for expression of S1P receptors by RT-PCR. Expression of 2-microglobulin is shown as an internal control.
S1P was added to a megakaryocyte colony formation assay using CD34^+ hematopoietic progenitor cells in semi-solid culture. […] In order to examine the expression pattern of each S1P receptor during the in vitro maturation of megakaryocytes, CD34^+ progenitor cells were cultured in a liquid medium defined for megakaryocyte development, sorted for CD41 expression on day 12 of the culture, and subjected to RT-PCR analysis. Expression of S1P5 receptor in CD34^+ cells on day 0 was low and S1P1, S1P2, S1P3, and EDG6 were not detectable after 40 cycles (FIG. 6B). […] The pattern matched, although with different relative band intensities for EDG6 and S1P2, with the one seen in the platelet sample. […] The exact mechanisms by which S1P affects the differentiation however, remain to be elucidated. Among the receptors for S1P, we were most interested in the function of EDG6 in megakaryocytopoiesis, because EDG6 is expressed in the lung, and the lung is the second most prominent site of platelet production in body with a large population of terminally differentiated megakaryocytes in pulmonary microvessels. […]
Colony formation assay and preparation of CD41^+ cells: Cord blood CD34^+ cells and bone marrow CD34^+ cells (Bio Whittaker, Md.) were cultured in serum-free Iscove's modified Dulbecco's medium for 2 days. […] The chambers were incubated at 37° C. in a 5% CO2 atmosphere for 12 days then megakaryocyte colonies (CFU-MK) were stained for CD41 and scored following the manufacturer's procedure. […]

HEL cells = assay: morphogenesis assay, HEL parental cells; format: cell-based, human; conditions: PMA 10 nM, 72 hours
Excerpt: Small particles (arrowhead) and a particle about to bud off from the cytosolic extension (arrow) are seen in HEL/S1P4 treated with PMA.
As reported, HEL parental cells develop into polyploidal large adherent cells with PMA treatment. […] Depositions of small particles and particles about to bud off from the end of the projections were also observed (FIG. 7). […] The observed prominent change of phenotype, thus can potentially be attributed to a rapid accumulation of S1P after treatment of PMA. As PMA is a pleiotropic substance, it is not easy to elucidate direct roles of sphingosine kinase in the phenomena.
Morphogenesis assay: Ten million cells were plated on a 24-well plate with or without 30 μM of the Rho-kinase inhibitor Y27632 (Calbiochem, CA). PMA (10 nM final) was added to the culture 30 minutes after plating. Cells were cultured for 72 hours and photographed. For studies using C3 exoenzyme, 2×10^5 cells in 0.5 ml culture medium were plated on a 24-well plate with or without 3 μg/ml of C3 exsoenzyme (Upstate, N.Y.), and cultured overnight. Fresh culture medium containing PMA and C3 exoenzyme was added to each well to give final PMA and C3 exoenzyme concentrations at 10 nM and 3 μg/ml, respectively. Cells were cultured for 72 hours and photographed.

HEL/EDG6 cells [7] = assay: morphogenesis assay, HEL/EDG6; format: cell-based, human; conditions: 72 hours
Experimental: as §1

HEL/CV cells [8] = assay: morphogenesis assay, HEL/CV; format: cell-based, human; conditions: with PMA 10 nM, Y27632 30 μM or C3 exoenzyme 3 μg/ml, 72 hours
Experimental: as §1

Question: With pertussis toxin as the molecule, how does the “effect on lipid-induced actions (S1P, SPC)” value (Edg-6 [1]; CHO and K562 cells expressing Edg-6, pertussis toxin treatment) read?
Answer: The value was “markedly suppressed”.

Question: With lysophosphatidic acid [LPA] as the molecule, how does the “increase in cytosolic Ca(2+) concentration” value (Edg-6 [1]) read?
Answer: The value was “without change”.

Question: And the “displacement of [(3)H]S1P binding” value (Edg-6 [2])?
Answer: The value was “inactive”.

Question: With thrombin as the molecule, how does the “release of Platelet Factor IV (PF4)” value [3] read?
Answer: Its value is “significant amounts”.

Question: Which “increase in cytosolic Ca(2+) concentration” value (Edg-6 [1]) does the source give for `CCCCCCCCCCCCC/C=C/[C@@H](O)[C@@H](N)COP(=O)([O-])OCC[N+](C)(C)C` [SPC] here?
Answer: Its value is “clearly enhanced”.

Question: What about the “displacement of [(3)H]S1P binding” value (Edg-6 [2]) of the same molecule?
Answer: The value was “displaced the [(3)H]S1P binding”.

Question: Which “release of Platelet Factor IV (PF4)” value [3] does the source give for `Nc1ncnc2c1ncn2[C@@H]1O[C@H](COP(=O)(O)OP(=O)(O)O)[C@@H](O)[C@H]1O` [ADP] here?
Answer: Its value is “only minor amounts”.

Question: For `CCCCCCCCCCCCC/C=C/[C@@H](O)[C@@H](N)COP(=O)(O)O` [S1P, sphingosine 1-phosphate], which GTP-Rac (HEL/EDG6 cells [4]) is on record?
Answer: The GTP-Rac was “up-regulation”.

Question: What about the GTP-Cdc42 (HEL/EDG6 cells [4]; data not shown) of the same molecule?
Answer: The GTP-Cdc42 was “increased”.

Question: What about the GTP-Rho (HEL/EDG6 cells [4]; data not shown) of the same molecule?
Answer: The GTP-Rho was “decreased”.

Question: And the “increase in cytosolic Ca(2+) concentration” value (Edg-6 [1])?
Answer: The value was “clearly enhanced”.

Question: What about the GTP-Rac (HEL/CV cells [5]) of the same molecule?
Answer: The GTP-Rac was “up-regulation”.

Question: And the GTP-Cdc42 increase (HEL/CV cells [5]; data not shown)?
Answer: The GTP-Cdc42 increase was “not in HEL/CV cells”.

Question: And the GTP-Rho decrease (HEL/CV cells [5]; data not shown)?
Answer: Its GTP-Rho decrease is “not in HEL/CV cells”.

Question: And the “displacement of [(3)H]S1P binding” value (Edg-6 [2])?
Answer: Its value is “displaced the [(3)H]S1P binding”.

Question: What about the “number of megakaryocyte colony forming units (CFU-MK)” value ([6]; 10 μM S1P at beginning of culture, CD34+ cells from bone marrow and cord blood, 12 days) of the same molecule?
Answer: The value was “significantly reduced”.

Question: And the CFU-nonMK numbers ([6]; 10 μM S1P, CD34+ cells from bone marrow and cord blood)?
Answer: The CFU-nonMK numbers was “remained unchanged or increased slightly”.

Question: And the “% CFU-MK” value ([6]; 10 μM S1P, cord blood or bone marrow CD34+ cells, Student's t-test)?
Answer: Its value is “Significantly lower”.

Question: For `CCCCCCCCCCCCCC(=O)O[C@@H]1[C@@H](C)[C@@]2(O)[C@@H](C=C(CO)C[C@]3(O)C(=O)C(C)=C[C@@H]23)[C@@H]2C(C)(C)[C@]12OC(C)=O` [PMA], which “cell morphology after PMA treatment” value (HEL cells) is on record?
Answer: Its value is “induced large adherent cells”.

Question: And the “release of Platelet Factor IV (PF4)” value [3]?
Answer: Its value is “significant amounts”.

Question: And the “cell morphology after PMA treatment” value (HEL/EDG6 cells [7]; HEL/EDG6, PMA 10 nM)?
Answer: The value was “formation of polyploidal large adherent cells with extended cytoplasmic projections resembling megakaryocyte processes”.

Question: With `C[C@@H](N)[C@H]1CC[C@H](C(=O)Nc2ccncc2)CC1` [Y27632] as the molecule, how does the “cytosolic extensions / morphology with cytoskeletal modulator” value (HEL/CV cells [8]) read?
Answer: Its value is “induced cytosolic extensions”.

Question: What about the “cytosolic extensions / morphology with cytoskeletal modulator” value (HEL/EDG6 cells [7]; HEL/EDG6, with PMA 10 nM, Y27632 30 μM or C3 exoenzyme 3 μg/ml) of the same molecule?
Answer: Its value is “did not induce any further effect”.
